Data from the NIST ThermoML archive (doi:10.1021/je060271a).
Numbers after ± are expanded uncertainties.

Details: 303.16 K, Liquid, Vibrating tube method

CCCC(=O)OCC(COC(=O)CCC)(COC(=O)CCC)COC(=O)CCC [pentaerythritol tetrabutyrate]
Details	mass density [kg/m3]
22501 kPa	1056.1 ± 1.3
22549 kPa	1056.2 ± 1.3
22606 kPa	1056.2 ± 1.3
22664 kPa	1056.3 ± 1.3
22714 kPa	1056.3 ± 1.3
22776 kPa	1056.4 ± 1.3
22829 kPa	1056.3 ± 1.3
22885 kPa	1056.5 ± 1.3
22917 kPa	1056.4 ± 1.3
22959 kPa	1056.5 ± 1.3
22993 kPa	1056.4 ± 1.3
23026 kPa	1056.4 ± 1.3
23065 kPa	1056.6 ± 1.3
23104 kPa	1056.5 ± 1.3
23137 kPa	1056.6 ± 1.3
23177 kPa	1056.6 ± 1.3
23211 kPa	1056.7 ± 1.3
23251 kPa	1056.7 ± 1.3
23285 kPa	1056.7 ± 1.3
23325 kPa	1056.7 ± 1.3
23359 kPa	1056.7 ± 1.3
23399 kPa	1056.7 ± 1.3
23440 kPa	1056.7 ± 1.3
23475 kPa	1056.8 ± 1.3
23516 kPa	1056.9 ± 1.3
23551 kPa	1056.9 ± 1.3
23593 kPa	1056.9 ± 1.3
23628 kPa	1056.8 ± 1.3
23670 kPa	1056.9 ± 1.3
23705 kPa	1056.8 ± 1.3
23747 kPa	1056.8 ± 1.3
23782 kPa	1057 ± 1.3
23825 kPa	1057 ± 1.3
23860 kPa	1057 ± 1.3
23902 kPa	1057.1 ± 1.3
23946 kPa	1057.1 ± 1.3
23981 kPa	1057 ± 1.3
24023 kPa	1057.1 ± 1.3
24066 kPa	1057 ± 1.3
24101 kPa	1057.2 ± 1.3
24145 kPa	1057.1 ± 1.3
24182 kPa	1057.3 ± 1.3
24225 kPa	1057.1 ± 1.3
24269 kPa	1057.2 ± 1.3
24306 kPa	1057.2 ± 1.3
24350 kPa	1057.3 ± 1.3
24387 kPa	1057.4 ± 1.3
24432 kPa	1057.3 ± 1.3
24470 kPa	1057.3 ± 1.3
24515 kPa	1057.5 ± 1.3
24560 kPa	1057.4 ± 1.3
24597 kPa	1057.4 ± 1.3
24642 kPa	1057.4 ± 1.3
24680 kPa	1057.5 ± 1.3
24726 kPa	1057.6 ± 1.3
24772 kPa	1057.6 ± 1.3
24810 kPa	1057.5 ± 1.3
24858 kPa	1057.5 ± 1.3
24897 kPa	1057.6 ± 1.3
24944 kPa	1057.7 ± 1.3
24991 kPa	1057.6 ± 1.3
25031 kPa	1057.5 ± 1.3
25070 kPa	1057.7 ± 1.3
25117 kPa	1057.7 ± 1.3
25165 kPa	1057.7 ± 1.3
25204 kPa	1057.8 ± 1.3
25252 kPa	1057.8 ± 1.3
25292 kPa	1057.9 ± 1.3
25340 kPa	1057.9 ± 1.3
25389 kPa	1058 ± 1.3
25431 kPa	1057.9 ± 1.3
25481 kPa	1057.9 ± 1.3
25523 kPa	1058 ± 1.3
25574 kPa	1058.1 ± 1.3
25618 kPa	1058.1 ± 1.3
25669 kPa	1058 ± 1.3
25712 kPa	1058.1 ± 1.3
25765 kPa	1058.1 ± 1.3
25816 kPa	1058.1 ± 1.3
25851 kPa	1058.2 ± 1.3
25889 kPa	1058.2 ± 1.3
25926 kPa	1058.1 ± 1.3
25957 kPa	1058 ± 1.3
25995 kPa	1058.2 ± 1.3
26027 kPa	1058.1 ± 1.3
26066 kPa	1058.3 ± 1.3
26106 kPa	1058.3 ± 1.3
26139 kPa	1058.4 ± 1.3
26171 kPa	1058.3 ± 1.3
26210 kPa	1058.3 ± 1.3
26243 kPa	1058.4 ± 1.3
26282 kPa	1058.4 ± 1.3
26320 kPa	1058.4 ± 1.3
26352 kPa	1058.5 ± 1.3
26392 kPa	1058.5 ± 1.3
26430 kPa	1058.3 ± 1.3
26463 kPa	1058.4 ± 1.3
26504 kPa	1058.6 ± 1.3
26538 kPa	1058.6 ± 1.3
26574 kPa	1058.6 ± 1.3
26615 kPa	1058.5 ± 1.3
26648 kPa	1058.6 ± 1.3
26688 kPa	1058.6 ± 1.3
26728 kPa	1058.6 ± 1.3
26761 kPa	1058.6 ± 1.3
26802 kPa	1058.6 ± 1.3
26836 kPa	1058.7 ± 1.3
26876 kPa	1058.8 ± 1.3
26918 kPa	1058.7 ± 1.3
26952 kPa	1058.7 ± 1.3
26994 kPa	1058.8 ± 1.3
27028 kPa	1058.8 ± 1.3
27070 kPa	1058.9 ± 1.3
27110 kPa	1058.8 ± 1.3
27145 kPa	1058.8 ± 1.3
27188 kPa	1058.8 ± 1.3
27223 kPa	1059.1 ± 1.3
27266 kPa	1058.9 ± 1.3
27301 kPa	1059 ± 1.3
27343 kPa	1058.9 ± 1.3
27385 kPa	1059.2 ± 1.3
27420 kPa	1059 ± 1.3
27464 kPa	1059 ± 1.3
27499 kPa	1059 ± 1.3
27542 kPa	1059.1 ± 1.3
27585 kPa	1059.1 ± 1.3
27622 kPa	1059.2 ± 1.3
27666 kPa	1059.2 ± 1.3
27702 kPa	1059.2 ± 1.3
27747 kPa	1059.1 ± 1.3
27784 kPa	1059.3 ± 1.3
27828 kPa	1059.2 ± 1.3
27865 kPa	1059.3 ± 1.3
27909 kPa	1059.4 ± 1.3
27953 kPa	1059.4 ± 1.3
27991 kPa	1059.3 ± 1.3
28035 kPa	1059.4 ± 1.3
28079 kPa	1059.4 ± 1.3
28117 kPa	1059.3 ± 1.3
28162 kPa	1059.4 ± 1.3
28200 kPa	1059.5 ± 1.3
28244 kPa	1059.4 ± 1.3
28290 kPa	1059.5 ± 1.3
28328 kPa	1059.5 ± 1.3
28374 kPa	1059.6 ± 1.3
28419 kPa	1059.7 ± 1.3
